# Results: patent US10829473B2, “Modulators of the cystic fibrosis transmembrane conductance regulator protein and methods of use” (AbbVie Overseas S.Á.R.L., priority 2017, dated 2020)
# Where two headings read alike, the source gives them in different places.
# Biological target: T1, F508delCFTR (Homo sapiens, UniProt P13569, DEL508-508)
# T1 construct: expressed in transfected cells; host or cells: CFBE41o- human lung derived epithelial cells (CFBE41o-F508delCFTR-HRP), doxycycline-inducible
# Test: Cell Surface Expression-Horse Radish Peroxidase (CSE-HRP) Assay;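 on EC50 (with co-corrector): co-corrector chromenyl benzoic acid corrector at 2 or 3 µM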;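 on Maximum % activity (without co-corrector): % of on-plate positive control chromenyl benzoic acid corrector at 2 or 3 µM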
# Assay type: cell-based
# Details: for Maximum % activity (with co-corrector) / Emax: maximum at any tested concentration; for Emax: read-out: Maximum % activity (without co-corrector)
# In short: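 Corrector compounds were given as 8-point 3-fold series from 20 or 30 μM, with or without a 2 μM co-corrector, for 18-24 h at 33 °C. Surface HRP was read by luminol luminescence as % of positive control; variable-Hill-slope sigmoidal fitting gave EC50 from triplicate plates.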
# [1] = test compound alone, without co-corrector, read-out: EC50 (without co-corrector)
# [2] = with co-corrector, read-out: EC50 (with co-corrector)
# T1 sequence (P13569 with tags, fused parts or gaps DEL508-508): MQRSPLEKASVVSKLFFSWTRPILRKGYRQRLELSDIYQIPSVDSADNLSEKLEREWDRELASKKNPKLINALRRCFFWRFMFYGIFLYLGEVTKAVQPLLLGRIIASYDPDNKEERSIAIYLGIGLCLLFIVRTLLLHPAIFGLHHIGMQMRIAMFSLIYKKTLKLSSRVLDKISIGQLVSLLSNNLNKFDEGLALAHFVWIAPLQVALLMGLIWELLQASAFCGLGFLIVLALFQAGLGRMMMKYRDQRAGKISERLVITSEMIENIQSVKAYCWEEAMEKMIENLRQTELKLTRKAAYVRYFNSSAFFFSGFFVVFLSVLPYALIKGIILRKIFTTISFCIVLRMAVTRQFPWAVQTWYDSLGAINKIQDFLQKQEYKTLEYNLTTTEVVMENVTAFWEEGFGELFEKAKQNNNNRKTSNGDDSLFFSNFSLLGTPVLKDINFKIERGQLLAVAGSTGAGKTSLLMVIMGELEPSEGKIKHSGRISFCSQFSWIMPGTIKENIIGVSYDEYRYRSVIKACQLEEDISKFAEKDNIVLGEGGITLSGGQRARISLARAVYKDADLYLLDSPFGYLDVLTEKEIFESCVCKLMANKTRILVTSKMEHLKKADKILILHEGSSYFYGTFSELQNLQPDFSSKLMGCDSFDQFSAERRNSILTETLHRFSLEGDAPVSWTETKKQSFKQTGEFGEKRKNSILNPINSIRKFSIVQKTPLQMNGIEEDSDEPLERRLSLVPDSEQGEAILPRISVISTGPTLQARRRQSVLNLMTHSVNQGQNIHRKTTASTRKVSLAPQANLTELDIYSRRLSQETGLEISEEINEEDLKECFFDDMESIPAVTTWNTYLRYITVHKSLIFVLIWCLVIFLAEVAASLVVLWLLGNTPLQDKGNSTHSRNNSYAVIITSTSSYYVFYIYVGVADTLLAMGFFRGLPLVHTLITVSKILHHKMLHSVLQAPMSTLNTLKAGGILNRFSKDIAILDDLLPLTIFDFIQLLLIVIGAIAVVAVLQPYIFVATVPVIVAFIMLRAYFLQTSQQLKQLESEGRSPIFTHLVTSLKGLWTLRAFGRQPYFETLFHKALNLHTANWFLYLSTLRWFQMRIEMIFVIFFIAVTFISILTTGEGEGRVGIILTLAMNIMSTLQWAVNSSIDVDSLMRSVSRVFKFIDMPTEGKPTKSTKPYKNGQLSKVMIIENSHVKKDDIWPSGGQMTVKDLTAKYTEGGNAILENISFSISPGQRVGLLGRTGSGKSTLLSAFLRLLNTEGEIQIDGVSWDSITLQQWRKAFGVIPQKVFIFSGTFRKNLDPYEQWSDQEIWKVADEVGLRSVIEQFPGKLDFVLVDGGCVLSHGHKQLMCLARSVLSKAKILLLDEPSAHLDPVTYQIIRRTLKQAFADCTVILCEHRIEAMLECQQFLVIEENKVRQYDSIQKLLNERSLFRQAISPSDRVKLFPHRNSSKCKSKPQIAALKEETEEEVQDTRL
Compound,EC50 [1],Maximum % activity (with co-corrector) (with co-corrector),EC50 [2],Emax (without co-corrector)
"COc1cccc(C2CCC2)c1C1(C(=O)NS(=O)(=O)c2cccc3ncccc23)CC1 [Example I-51, 1-(2-cyclobutyl-6-methoxyphenyl)-N-(quinoline-5-sulfonyl)cyclopropane-1-carboxamide]",< 3 µM,+++ (≥350),< 3 µM,> 150%
"COc1ccc(C(C)(C)OC)cc1C1(C(=O)NS(=O)(=O)c2cccc3ncccc23)CC1 [Example I-52, 1-[2-methoxy-5-(2-methoxypropan-2-yl)phenyl]-N-(quinoline-5-sulfonyl)cyclopropane-1-carboxamide]",< 3 µM,+++ (≥350),< 3 µM,> 150%
"COc1ccc(C)cc1C1(C(=O)NS(=O)(=O)c2cccc3[nH]ncc23)CC1 [Example I-53, N-(1H-indazole-4-sulfonyl)-1-(2-methoxy-5-methylphenyl)cyclopropane-1-carboxamide]",3 to 10 µM,+++ (≥350),< 3 µM,> 150%
"COc1ccc(C2CCC2)cc1C1(C(=O)NS(=O)(=O)c2cccc3c2CCN3)CC1 [Example I-54, 1-(5-cyclobutyl-2-methoxyphenyl)-N-(2,3-dihydro-1H-indole-4-sulfonyl)cyclopropane-1-carboxamide]",< 3 µM,+++ (≥350),< 3 µM,> 150%
"COc1ccc(C2CCC2)cc1C1(C(=O)NS(=O)(=O)c2cccc3[nH]ccc23)CC1 [Example I-55, 1-(5-cyclobutyl-2-methoxyphenyl)-N-(1H-indole-4-sulfonyl)cyclopropane-1-carboxamide]",< 3 µM,+++ (≥350),< 3 µM,> 150%
"COc1ccc(C2CCC2)cc1C1(C(=O)NS(=O)(=O)c2cccc3[nH]ncc23)CC1 [Example I-56, 1-(5-cyclobutyl-2-methoxyphenyl)-N-(1H-indazole-4-sulfonyl)cyclopropane-1-carboxamide]",< 3 µM,+++ (≥350),< 3 µM,> 150%
"CN(C)c1ncc(C(F)(F)F)cc1C1(C(=O)NS(=O)(=O)c2cccc3ncccc23)CC1 [Example I-57, 1-[2-(dimethylamino)-5-(trifluoromethyl)pyridin-3-yl]-N-(quinoline-5-sulfonyl)cyclopropane-1-carboxamide]",< 3 µM,+++ (≥350),< 3 µM,> 150%
"COc1ccc(C2CCC2)cc1C1(C(=O)NS(=O)(=O)c2cccc3c2ccn3C)CC1 [Example I-58, 1-(5-cyclobutyl-2-methoxyphenyl)-N-(1-methyl-1H-indole-4-sulfonyl)cyclopropane-1-carboxamide]",3 to 10 µM,+++ (≥350),< 3 µM,> 150%
"COc1ccc(C2CCC2)cc1C1(C(=O)NS(=O)(=O)c2cccc3ccn(C)c23)CC1 [Example I-59, 1-(5-cyclobutyl-2-methoxyphenyl)-N-(1-methyl-1H-indole-7-sulfonyl)cyclopropane-1-carboxamide]",< 3 µM,+++ (≥350),< 3 µM,> 150%
"COc1ccc(C2CCC2)cc1C1(C(=O)NS(=O)(=O)c2cccc3cnn(C)c23)CC1 [Example I-60, 1-(5-cyclobutyl-2-methoxyphenyl)-N-(1-methyl-1H-indazole-7-sulfonyl)cyclopropane-1-carboxamide]",< 3 µM,+++ (≥350),< 3 µM,> 150%
"COc1ccc(C2CCC2)cc1C1(C(=O)NS(=O)(=O)c2cccn3nccc23)CC1 [Example I-61, 1-(5-cyclobutyl-2-methoxyphenyl)-N-(pyrazolo[1,5-a]pyridine-4-sulfonyl)cyclopropane-1-carboxamide]",< 3 µM,+++ (≥350),< 3 µM,> 150%
"COc1ccc(C2CCC2)cc1C1(C(=O)NS(=O)(=O)c2cccc3ccc(C)nc23)CC1 [Example I-62, 1-(5-cyclobutyl-2-methoxyphenyl)-N-(2-methylquinoline-8-sulfonyl)cyclopropane-1-carboxamide]",< 3 µM,+++ (≥350),< 3 µM,> 150%
"COc1ccc(C2CCC2)cc1C1(C(=O)NS(=O)(=O)c2cccc3nc(C)ccc23)CC1 [Example I-63, 1-(5-cyclobutyl-2-methoxyphenyl)-N-(2-methylquinoline-5-sulfonyl)cyclopropane-1-carboxamide]",< 3 µM,+++ (≥350),< 3 µM,> 150%
"COc1ccc(C)cc1C1(C(=O)NS(=O)(=O)c2cccc3nc(C)ccc23)CC1 [Example I-64, 1-(2-methoxy-5-methylphenyl)-N-(2-methylquinoline-5-sulfonyl)cyclopropane-1-carboxamide]",< 3 µM,+++ (≥350),< 3 µM,> 150%
"COc1ccc(OC(F)F)cc1C1(C(=O)NS(=O)(=O)c2cccc3ncccc23)CC1 [Example I-65, 1-[5-(difluoromethoxy)-2-methoxyphenyl]-N-(quinoline-5-sulfonyl)cyclopropane-1-carboxamide]",3 to 10 µM,+++ (≥350),< 3 µM,> 150%
"CCOc1cccc(OCC)c1C1(C(=O)NS(=O)(=O)c2cccc3ncccc23)CC1 [Example I-66, 1-(2,6-diethoxyphenyl)-N-(quinoline-5-sulfonyl)cyclopropane-1-carboxamide]",< 3 µM,+++ (≥350),< 3 µM,> 150%
"COc1ccc(C2CCC2)cc1C1(C(=O)NS(=O)(=O)c2cccc3nc(N)ccc23)CC1 [Example I-67, N-(2-aminoquinoline-5-sulfonyl)-1-(5-cyclobutyl-2-methoxyphenyl)cyclopropane-1-carboxamide]",3 to 10 µM,+++ (≥350),< 3 µM,> 150%
"COc1ccc(C2CC2)cc1C1(C(=O)NS(=O)(=O)c2cccc3nc(C)ccc23)CC1 [Example I-68, 1-(5-cyclopropyl-2-methoxyphenyl)-N-(2-methylquinoline-5-sulfonyl)cyclopropane-1-carboxamide]",< 3 µM,–,< 3 µM,–
"CCOc1ccc(OC)c(C2(C(=O)NS(=O)(=O)c3cccc4nc(C)ccc34)CC2)c1 [Example I-69, 1-(5-ethoxy-2-methoxyphenyl)-N-(2-methylquinoline-5-sulfonyl)cyclopropane-1-carboxamide]",< 3 µM,+++ (≥350),< 3 µM,> 150%
"COc1ccc(C(C)(C)C)cc1C1(C(=O)NS(=O)(=O)c2cccc3nc(C)ccc23)CC1 [Example I-70, 1-(5-tert-butyl-2-methoxyphenyl)-N-(2-methylquinoline-5-sulfonyl)cyclopropane-1-carboxamide]",< 3 µM,+++ (≥350),< 3 µM,> 150%
